ChEMBL document CHEMBL3881527, “Multi-functional small molecules as anti-proliferative agents” (2008)

Experiments:
[1] = biological target: Receptor tyrosine-protein kinase erbB-2 (Homo sapiens, UniProt P04626); test: Inhibition of N-terminal GST-tagged human HER2 (Lys676 to Val1255 residues) expressed in baculovirus expression system using biotinylated FLT3 at Tyr589 as substrate preincubated for 5 mins followed by substrate addition measured after 30 mins by DELFIA method
[2] = biological target: Vascular endothelial growth factor receptor 2 (Homo sapiens, UniProt P35968); test: Inhibition of N-terminal GST-His6-thrombin cleavage site-fused human VEGFR2 (Asp805 to Val1356 residues) expressed in baculovirus expression system using biotinylated gastrin precursor at Tyr87 as substrate preincubated for 5 mins followed by substrate addition measured after 30 mins by DELFIA method
Vascular endothelial growth factor receptor 2, sequence (P35968 whole entry, the tested form may be a part): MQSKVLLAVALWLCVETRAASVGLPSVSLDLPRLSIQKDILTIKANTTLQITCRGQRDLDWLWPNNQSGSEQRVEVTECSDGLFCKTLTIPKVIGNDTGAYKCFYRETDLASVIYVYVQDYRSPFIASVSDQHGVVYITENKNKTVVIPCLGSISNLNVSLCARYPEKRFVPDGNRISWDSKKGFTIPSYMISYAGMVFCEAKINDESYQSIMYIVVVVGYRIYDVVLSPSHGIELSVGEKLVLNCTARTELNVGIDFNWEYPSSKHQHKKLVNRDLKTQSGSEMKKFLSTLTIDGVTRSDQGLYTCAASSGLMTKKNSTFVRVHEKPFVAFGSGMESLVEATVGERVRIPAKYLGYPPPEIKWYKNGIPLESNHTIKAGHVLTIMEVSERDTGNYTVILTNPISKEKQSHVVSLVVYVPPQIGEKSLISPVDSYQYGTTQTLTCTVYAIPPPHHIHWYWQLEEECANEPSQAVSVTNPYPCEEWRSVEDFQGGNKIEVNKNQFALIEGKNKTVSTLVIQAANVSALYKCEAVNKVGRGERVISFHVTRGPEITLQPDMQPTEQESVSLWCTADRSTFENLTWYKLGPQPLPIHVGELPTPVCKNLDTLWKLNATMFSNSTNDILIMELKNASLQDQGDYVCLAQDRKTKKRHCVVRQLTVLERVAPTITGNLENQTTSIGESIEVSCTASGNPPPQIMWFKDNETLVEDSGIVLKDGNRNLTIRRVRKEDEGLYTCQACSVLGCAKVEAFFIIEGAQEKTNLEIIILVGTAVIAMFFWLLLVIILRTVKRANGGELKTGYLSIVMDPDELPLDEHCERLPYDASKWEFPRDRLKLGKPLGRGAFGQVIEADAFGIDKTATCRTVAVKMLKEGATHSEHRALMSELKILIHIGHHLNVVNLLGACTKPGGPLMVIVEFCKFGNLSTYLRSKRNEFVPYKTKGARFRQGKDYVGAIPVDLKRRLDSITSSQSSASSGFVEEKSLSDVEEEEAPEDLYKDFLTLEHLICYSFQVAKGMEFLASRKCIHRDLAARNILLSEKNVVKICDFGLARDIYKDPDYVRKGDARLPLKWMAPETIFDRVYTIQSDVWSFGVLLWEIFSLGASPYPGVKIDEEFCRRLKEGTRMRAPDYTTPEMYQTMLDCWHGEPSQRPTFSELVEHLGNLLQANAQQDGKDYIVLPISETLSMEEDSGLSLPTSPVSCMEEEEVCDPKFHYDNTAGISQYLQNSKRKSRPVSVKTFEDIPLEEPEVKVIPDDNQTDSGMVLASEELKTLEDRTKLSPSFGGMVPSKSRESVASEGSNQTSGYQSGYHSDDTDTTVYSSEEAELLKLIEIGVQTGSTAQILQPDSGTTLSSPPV

[3] = biological target: Epidermal growth factor receptor (Homo sapiens, UniProt P00533); test: Inhibition of N-terminal GST-fused human EGFR (His672 to Ala1210 residues) expressed in baculovirus expression system using biotinylated PTP1B at Tyr66 as substrate preincubated for 5 mins followed by substrate addition measured after 30 mins by DELFIA
Epidermal growth factor receptor, sequence (P00533 whole entry, the tested form may be a part): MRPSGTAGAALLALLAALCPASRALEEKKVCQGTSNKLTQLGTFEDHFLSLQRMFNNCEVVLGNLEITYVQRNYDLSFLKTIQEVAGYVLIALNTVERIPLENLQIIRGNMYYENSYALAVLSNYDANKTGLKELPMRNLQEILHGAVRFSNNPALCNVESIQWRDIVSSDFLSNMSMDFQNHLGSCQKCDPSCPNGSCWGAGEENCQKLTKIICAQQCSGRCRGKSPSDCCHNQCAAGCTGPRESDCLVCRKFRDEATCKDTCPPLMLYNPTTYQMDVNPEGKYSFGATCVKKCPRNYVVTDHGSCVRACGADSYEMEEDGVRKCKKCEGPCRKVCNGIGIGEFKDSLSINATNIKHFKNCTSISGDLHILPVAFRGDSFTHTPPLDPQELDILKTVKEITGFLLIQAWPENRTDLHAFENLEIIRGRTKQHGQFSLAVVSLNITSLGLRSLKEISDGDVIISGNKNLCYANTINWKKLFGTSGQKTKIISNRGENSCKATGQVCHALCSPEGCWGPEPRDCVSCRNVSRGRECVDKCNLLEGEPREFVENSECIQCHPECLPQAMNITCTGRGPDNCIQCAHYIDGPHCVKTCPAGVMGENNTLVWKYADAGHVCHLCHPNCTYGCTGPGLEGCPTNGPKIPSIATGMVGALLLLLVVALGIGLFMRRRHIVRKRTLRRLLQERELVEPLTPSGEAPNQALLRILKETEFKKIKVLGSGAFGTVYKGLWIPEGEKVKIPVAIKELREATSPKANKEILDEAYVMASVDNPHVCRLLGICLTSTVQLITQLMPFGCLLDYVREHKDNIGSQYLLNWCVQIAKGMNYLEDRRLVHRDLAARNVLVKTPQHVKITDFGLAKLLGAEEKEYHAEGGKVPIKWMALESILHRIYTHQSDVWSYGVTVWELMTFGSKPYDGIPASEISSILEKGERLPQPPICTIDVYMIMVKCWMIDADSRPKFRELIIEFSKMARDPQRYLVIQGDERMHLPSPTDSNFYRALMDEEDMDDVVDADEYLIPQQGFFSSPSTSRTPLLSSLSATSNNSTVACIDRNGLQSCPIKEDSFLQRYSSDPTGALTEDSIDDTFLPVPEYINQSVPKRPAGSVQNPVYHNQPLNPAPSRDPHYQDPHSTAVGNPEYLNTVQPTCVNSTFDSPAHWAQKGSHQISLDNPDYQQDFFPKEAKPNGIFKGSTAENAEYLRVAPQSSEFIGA

Receptor tyrosine-protein kinase erbB-2, sequence (P04626 whole entry, the tested form may be a part): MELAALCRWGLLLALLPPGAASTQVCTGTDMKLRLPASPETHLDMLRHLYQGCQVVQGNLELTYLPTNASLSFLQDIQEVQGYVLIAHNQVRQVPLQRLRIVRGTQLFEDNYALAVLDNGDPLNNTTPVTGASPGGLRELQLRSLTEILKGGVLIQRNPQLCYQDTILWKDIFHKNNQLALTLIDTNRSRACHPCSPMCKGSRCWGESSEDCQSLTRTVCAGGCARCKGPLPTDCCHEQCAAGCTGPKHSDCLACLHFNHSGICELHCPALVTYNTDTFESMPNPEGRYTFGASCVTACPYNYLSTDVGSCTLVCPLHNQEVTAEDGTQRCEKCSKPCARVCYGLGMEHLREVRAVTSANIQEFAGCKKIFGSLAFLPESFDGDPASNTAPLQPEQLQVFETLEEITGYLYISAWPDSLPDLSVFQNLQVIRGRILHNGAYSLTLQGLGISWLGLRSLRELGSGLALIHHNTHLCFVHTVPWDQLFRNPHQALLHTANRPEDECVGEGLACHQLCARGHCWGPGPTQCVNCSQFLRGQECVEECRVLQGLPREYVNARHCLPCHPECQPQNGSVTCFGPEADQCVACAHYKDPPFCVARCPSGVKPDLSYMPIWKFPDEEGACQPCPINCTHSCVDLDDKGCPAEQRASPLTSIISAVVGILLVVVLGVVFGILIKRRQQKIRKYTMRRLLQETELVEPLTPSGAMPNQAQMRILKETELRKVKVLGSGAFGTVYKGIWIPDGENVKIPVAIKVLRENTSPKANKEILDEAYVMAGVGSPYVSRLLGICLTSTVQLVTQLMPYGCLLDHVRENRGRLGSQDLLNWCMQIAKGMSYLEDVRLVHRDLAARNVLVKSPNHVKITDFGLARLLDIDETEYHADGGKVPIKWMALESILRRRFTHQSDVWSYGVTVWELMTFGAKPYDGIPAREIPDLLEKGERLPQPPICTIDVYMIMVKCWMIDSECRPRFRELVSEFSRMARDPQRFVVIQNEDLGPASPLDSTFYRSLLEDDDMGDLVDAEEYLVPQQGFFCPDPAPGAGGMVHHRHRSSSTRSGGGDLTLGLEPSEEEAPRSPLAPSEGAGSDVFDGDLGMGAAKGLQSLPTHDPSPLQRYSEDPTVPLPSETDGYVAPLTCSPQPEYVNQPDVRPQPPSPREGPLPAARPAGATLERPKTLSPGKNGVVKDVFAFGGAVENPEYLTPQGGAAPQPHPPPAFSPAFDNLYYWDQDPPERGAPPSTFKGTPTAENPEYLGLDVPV

| SMILES | IC50 [1] | IC50 [2] | IC50 [3] |
| --- | --- | --- | --- |
| O=C(CCCCCCOc1ccc(-c2cc3c(NCc4ccccc4)ncnc3[nH]2)cc1)NO | 1 to 10 µM | 1 to 10 µM | 0.1 to 1 µM |
| C[C@@H](Nc1ncnc2[nH]c(-c3ccc(CN4CCN(CCC(=O)NO)CC4)cc3)cc12)c1ccccc1 | ≤ 0.1 µM | 0.1 to 1 µM | ≤ 0.1 µM |
| Cc1[nH]c(/C=C2\C(=O)Nc3ccc(F)cc32)c(C)c1C(=O)NCCOc1ccc(/C=C/C(=O)NO)cc1 |  | ≤ 0.1 µM |  |
| C[C@@H](Nc1ncnc2[nH]c(-c3ccc(NC(=O)CCC(=O)NO)cc3)cc12)c1ccccc1 | 0.1 to 1 µM | 0.1 to 1 µM | ≤ 0.1 µM |
| C[C@@H](Nc1ncnc2[nH]c(-c3ccc(C(=O)NCCNCCC(=O)NO)cc3)cc12)c1ccccc1 | 0.1 to 1 µM | 0.1 to 1 µM | ≤ 0.1 µM |
| C[C@@H](Nc1ncnc2[nH]c(-c3ccc(OCCCCCCC(=O)NO)cc3)cc12)c1ccccc1 | 0.1 to 1 µM | ≤ 0.1 µM | ≤ 0.1 µM |
| COc1cc2ncnc(Nc3ccc(F)c(Cl)c3)c2cc1SCCCCCCC(=O)NO | ≤ 0.1 µM |  |  |
| C[C@@H](Nc1ncnc2[nH]c(-c3ccc(CNCCCCCC(=O)NO)cc3)cc12)c1ccccc1 | 0.1 to 1 µM | 0.1 to 1 µM | ≤ 0.1 µM |
| C[C@@H](Nc1ncnc2[nH]c(-c3ccc(CNCCCCCCC(=O)NO)cc3)cc12)c1ccccc1 | 0.1 to 1 µM | 0.1 to 1 µM | ≤ 0.1 µM |
| O=C(CCCC(=O)Nc1cc(Oc2ccc(NC(=O)Nc3ccc(Cl)c(C(F)(F)F)c3)cc2)ccn1)NO |  | ≤ 0.1 µM |  |
| C[C@@H](Nc1ncnc2[nH]c(-c3ccc(NC(=O)CCCCC(=O)NO)cc3)cc12)c1ccccc1 | 0.1 to 1 µM | 0.1 to 1 µM | ≤ 0.1 µM |
| C[C@@H](Nc1ncnc2[nH]c(-c3ccc(OCCCCCCC(=O)NO)cc3)cc12)c1ccc(F)cc1 | 0.1 to 1 µM | 1 to 10 µM | 0.1 to 1 µM |
| O=C(CCCCCCNCc1cc(Oc2ccc(NC(=O)Nc3ccc(Cl)c(C(F)(F)F)c3)cc2)ccn1)NO |  | 0.1 to 1 µM |  |
| C[C@@H](Nc1ncnc2[nH]c(-c3ccc(CNCc4ccc(C(=O)NO)cc4)cc3)cc12)c1ccccc1 | 0.1 to 1 µM | 0.1 to 1 µM | ≤ 0.1 µM |
| O=C(CCCCOc1cc(Oc2ccc(NC(=O)Nc3ccc(Cl)c(C(F)(F)F)c3)cc2)ccn1)NO |  | ≤ 0.1 µM |  |
| O=C(CCCCCCCNCc1cc(Oc2ccc(NC(=O)Nc3ccc(Cl)c(C(F)(F)F)c3)cc2)ccn1)NO |  | 0.1 to 1 µM |  |
| C[C@@H](Nc1ncnc2[nH]c(-c3ccc(OCCCC(=O)NO)cc3)cc12)c1ccccc1 | 0.1 to 1 µM | 0.1 to 1 µM | ≤ 0.1 µM |
| C#Cc1cccc(Nc2ncnc3cc(OC)c(OCC(=O)NO)cc23)c1 | ≤ 0.1 µM |  |  |

| SMILES | IC50 [1] | IC50 [2] | IC50 [3] |
| --- | --- | --- | --- |
| C[C@@H](Nc1ncnc2[nH]c(-c3ccc(C(=O)NCCNCCCCCC(=O)NO)cc3)cc12)c1ccccc1 | 0.1 to 1 µM | 0.1 to 1 µM | ≤ 0.1 µM |
| C[C@@H](Nc1ncnc2[nH]c(-c3ccc(CNCC(=O)NO)cc3)cc12)c1ccccc1 | 1 to 10 µM |  | 1 to 10 µM |
| C#Cc1cccc(Nc2ncnc3cc(OC)c(NC(=O)CCCCCCC(=O)NO)cc23)c1 | 0.1 to 1 µM |  |  |
| C#Cc1cc(Nc2ncnc3cc(OC)c(OCCCCCCC(=O)NO)cc23)ccc1O | ≤ 0.1 µM |  |  |
| Cc1[nH]c(/C=C2\C(=O)Nc3ccc(F)cc32)c(C)c1C(=O)NCCCCCC(=O)N(C)O |  | ≤ 0.1 µM |  |
| C[C@@H](Nc1ncnc2[nH]c(-c3ccc(NCc4ccc(C(=O)NO)cc4)cc3)cc12)c1ccccc1 | 0.1 to 1 µM | 1 to 10 µM | ≤ 0.1 µM |
| C[C@@H](Nc1ncnc2[nH]c(-c3ccc(NC(=O)CCCC(=O)NO)cc3)cc12)c1ccccc1 | 0.1 to 1 µM | 0.1 to 1 µM | ≤ 0.1 µM |
| O=C(CCCC(=O)NCc1cc(Oc2ccc(NC(=O)Nc3ccc(Cl)c(C(F)(F)F)c3)cc2)ccn1)NO |  | ≤ 0.1 µM |  |
| C[C@@H](Nc1ncnc2[nH]c(-c3ccc(OCCCCCC(=O)NO)cc3)cc12)c1ccccc1 | 0.1 to 1 µM | 1 to 10 µM | ≤ 0.1 µM |
| C[C@@H](Nc1ncnc2[nH]c(-c3ccc(NC(=O)CCCCCCC(=O)NO)cc3)cc12)c1ccccc1 | 0.1 to 1 µM | 0.1 to 1 µM | ≤ 0.1 µM |
| C[C@@H](Nc1ncnc2[nH]c(-c3ccc(C(=O)NCCNCCCCCCC(=O)NO)cc3)cc12)c1ccccc1 | 0.1 to 1 µM | 0.1 to 1 µM | ≤ 0.1 µM |
| O=C(Nc1ccc(Oc2ccnc(C(=O)NO)c2)cc1)Nc1ccc(Cl)c(C(F)(F)F)c1 |  | 1 to 10 µM |  |
| C[C@@H](Nc1ncnc2c1cc(-c1ccc(C(=O)NCCNCCCCCCC(=O)NO)cc1)n2C)c1ccccc1 | 0.1 to 1 µM | 1 to 10 µM |  |
| COCCOc1cc2ncnc(Nc3ccc(F)c(Cl)c3)c2cc1OCCCCCCC(=O)NO | 0.1 to 1 µM |  |  |
| COCCOc1cc2c(Nc3ccc(F)c(Cl)c3)ncnc2cc1OCCCCCCC(=O)NO | 0.1 to 1 µM |  |  |
| COc1cc2ncnc(Nc3ccc(F)c(Cl)c3)c2cc1SCCCCC(=O)NO | ≤ 0.1 µM |  |  |
| C[C@@H](Nc1ncnc2[nH]c(-c3ccc(NCc4ccc(/C=C/C(=O)NO)cc4)cc3)cc12)c1ccccc1 |  | 1 to 10 µM | ≤ 0.1 µM |

More lines, main results first:

| IC50 [1] | SMILES | IC50 [2] | IC50 [3] |
| --- | --- | --- | --- |
| ≤ 0.1 µM | C[C@@H](Nc1ncnc2[nH]c(-c3ccc(CN4CCC(NCCCCCCCC(=O)NO)CC4)cc3)cc12)c1ccccc1 |  |  |
| ≤ 0.1 µM | C[C@@H](Nc1ncnc2[nH]c(-c3ccc(OCC(=O)NO)cc3)cc12)c1ccccc1 | 1 to 10 µM | ≤ 0.1 µM |
| ≤ 0.1 µM | C[C@@H](Nc1ncnc2[nH]c(-c3ccc(CN4CCN(CCCC(=O)NO)CC4)cc3)cc12)c1ccccc1 | 0.1 to 1 µM | ≤ 0.1 µM |
| ≤ 0.1 µM | COc1cc2ncnc(Nc3ccc(F)c(Cl)c3)c2cc1OCCCCCCC(=O)NO | 0.1 to 1 µM | 0.0031 µM |
| ≥ 10 µM | C[C@@H](Nc1ncnc2[nH]c(-c3ccc(CNCc4ccc(/C=C/C(=O)NO)cc4)cc3)cc12)c1ccccc1 | ≥ 10 µM | ≥ 10 µM |
| 0.1 to 1 µM | COc1cc2c(Nc3ccc(F)c(Cl)c3)ncnc2cc1OCCCCCCC(=O)NO |  |  |
| ≤ 0.1 µM | O=C(CCCCCNCc1ccc(-c2ccc3ncnc(Nc4ccc(OCc5cccc(F)c5)c(Cl)c4)c3c2)o1)NO |  |  |
| ≤ 0.1 µM | C[C@@H](Nc1ncnc2[nH]c(-c3ccc(CN4CCN(CCCCCCC(=O)NO)CC4)cc3)cc12)c1ccccc1 | 0.1 to 1 µM | ≤ 0.1 µM |
| ≤ 0.1 µM | C[C@@H](Nc1ncnc2[nH]c(-c3ccc(OCCNCCCCCCC(=O)NO)cc3)cc12)c1ccccc1 | ≤ 0.1 µM | ≤ 0.1 µM |
| 0.1 to 1 µM | C#Cc1cccc(Nc2ncnc3cc(OCCCCCCC(=O)NO)c(OC)cc23)c1 |  |  |
| 0.1 to 1 µM | C#Cc1cccc(Nc2ncnc3cc(OCCCCCCC(=O)NO)c(OCCOC)cc23)c1 |  |  |
| ≤ 0.1 µM | C[C@@H](Nc1ncnc2[nH]c(-c3ccc(NCCCCCC(=O)NO)cc3)cc12)c1ccccc1 | ≤ 0.1 µM | ≤ 0.1 µM |
| 0.1 to 1 µM | C[C@@H](Nc1ncnc2[nH]c(-c3ccc(CN4CCN(CCCCC(=O)NO)CC4)cc3)cc12)c1ccccc1 | 0.1 to 1 µM | ≤ 0.1 µM |
| ≤ 0.1 µM | C[C@@H](Nc1ncnc2[nH]c(-c3ccc(OCCNCCCCCCCC(=O)NO)cc3)cc12)c1ccccc1 |  |  |
| ≤ 0.1 µM | O=C(CCCCCCOc1ccc2ncnc(Nc3ccc(OCc4cccc(F)c4)c(Cl)c3)c2c1)NO |  |  |
| ≤ 0.1 µM | COc1cc2ncnc(Nc3ccc(OCc4cccc(F)c4)c(Cl)c3)c2cc1OCCCCCCC(=O)NO |  |  |
| 0.1 to 1 µM | C[C@@H](Nc1ncnc2[nH]c(-c3ccc(CN4CCN(CCCCCC(=O)NO)CC4)cc3)cc12)c1ccccc1 | 0.1 to 1 µM |  |
